Consider six compounds from ChEMBL document CHEMBL5291721, “A preclinical secondary pharmacology resource illuminates target-adverse drug reaction associations of marketed drugs” (Nat Commun, 2023).

In assay [1] the target is Neurotensin receptor type 1 (Homo sapiens, UniProt P30989).
For assay [2], the target named is Sodium-dependent noradrenaline transporter (Homo sapiens, UniProt P23975).
The target of assay [3] is T1, Corticotropin-releasing factor receptor 2 (Homo sapiens, UniProt Q13324).
T1 sequence (Q13324 whole entry): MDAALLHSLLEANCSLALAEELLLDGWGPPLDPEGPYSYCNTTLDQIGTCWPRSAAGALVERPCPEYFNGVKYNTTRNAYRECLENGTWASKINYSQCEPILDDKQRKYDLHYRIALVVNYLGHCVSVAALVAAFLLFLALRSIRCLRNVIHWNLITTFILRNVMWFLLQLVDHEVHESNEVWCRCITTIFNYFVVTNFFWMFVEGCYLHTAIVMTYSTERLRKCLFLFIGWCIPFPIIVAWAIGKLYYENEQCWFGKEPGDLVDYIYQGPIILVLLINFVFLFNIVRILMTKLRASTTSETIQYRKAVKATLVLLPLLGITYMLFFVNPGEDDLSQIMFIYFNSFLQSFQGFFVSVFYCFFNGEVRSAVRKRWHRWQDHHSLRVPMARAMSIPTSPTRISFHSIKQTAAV

Assay [4] addresses Histamine H3 receptor (Homo sapiens, UniProt Q9Y5N1).
Assay [5] deals with Voltage-dependent N-type calcium channel subunit alpha-1B (Rattus norvegicus, UniProt Q02294). In kind it is functional.
For assay [6], the target named is Beta-2 adrenergic receptor (Homo sapiens, UniProt P07550).
For assay [7], the target named is T2, Neuropeptide Y receptor type 2 (Homo sapiens, UniProt P49146).
T2 sequence (P49146 whole entry): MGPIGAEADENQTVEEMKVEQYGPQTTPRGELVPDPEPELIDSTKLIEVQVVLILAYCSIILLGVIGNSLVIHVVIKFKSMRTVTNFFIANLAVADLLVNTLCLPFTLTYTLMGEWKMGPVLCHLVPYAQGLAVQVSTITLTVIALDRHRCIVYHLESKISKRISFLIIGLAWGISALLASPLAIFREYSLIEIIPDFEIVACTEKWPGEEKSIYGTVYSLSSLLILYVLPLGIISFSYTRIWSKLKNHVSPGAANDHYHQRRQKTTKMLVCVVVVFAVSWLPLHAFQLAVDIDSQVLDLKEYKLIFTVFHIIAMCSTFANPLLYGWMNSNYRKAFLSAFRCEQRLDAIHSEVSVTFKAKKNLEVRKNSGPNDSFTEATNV

Assay [8] deals with T3, Muscarinic acetylcholine receptor M1 (Homo sapiens, UniProt P11229).
T3 sequence (P11229 whole entry): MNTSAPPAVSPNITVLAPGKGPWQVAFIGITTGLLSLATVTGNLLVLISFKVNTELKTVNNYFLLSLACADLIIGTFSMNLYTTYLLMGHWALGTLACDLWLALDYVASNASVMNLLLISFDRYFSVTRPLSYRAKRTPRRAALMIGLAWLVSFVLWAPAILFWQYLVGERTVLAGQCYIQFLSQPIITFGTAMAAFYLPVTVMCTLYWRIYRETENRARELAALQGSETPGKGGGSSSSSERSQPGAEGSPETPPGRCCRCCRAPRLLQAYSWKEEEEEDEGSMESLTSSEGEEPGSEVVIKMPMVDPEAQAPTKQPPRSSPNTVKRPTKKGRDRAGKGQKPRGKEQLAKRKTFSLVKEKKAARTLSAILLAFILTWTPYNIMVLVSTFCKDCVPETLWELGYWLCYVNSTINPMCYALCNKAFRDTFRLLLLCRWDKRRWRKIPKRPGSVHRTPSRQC
In kind it is functional.

The target in assay [9] is T4, Progesterone receptor (Homo sapiens, UniProt P06401).
T4 sequence (P06401 whole entry): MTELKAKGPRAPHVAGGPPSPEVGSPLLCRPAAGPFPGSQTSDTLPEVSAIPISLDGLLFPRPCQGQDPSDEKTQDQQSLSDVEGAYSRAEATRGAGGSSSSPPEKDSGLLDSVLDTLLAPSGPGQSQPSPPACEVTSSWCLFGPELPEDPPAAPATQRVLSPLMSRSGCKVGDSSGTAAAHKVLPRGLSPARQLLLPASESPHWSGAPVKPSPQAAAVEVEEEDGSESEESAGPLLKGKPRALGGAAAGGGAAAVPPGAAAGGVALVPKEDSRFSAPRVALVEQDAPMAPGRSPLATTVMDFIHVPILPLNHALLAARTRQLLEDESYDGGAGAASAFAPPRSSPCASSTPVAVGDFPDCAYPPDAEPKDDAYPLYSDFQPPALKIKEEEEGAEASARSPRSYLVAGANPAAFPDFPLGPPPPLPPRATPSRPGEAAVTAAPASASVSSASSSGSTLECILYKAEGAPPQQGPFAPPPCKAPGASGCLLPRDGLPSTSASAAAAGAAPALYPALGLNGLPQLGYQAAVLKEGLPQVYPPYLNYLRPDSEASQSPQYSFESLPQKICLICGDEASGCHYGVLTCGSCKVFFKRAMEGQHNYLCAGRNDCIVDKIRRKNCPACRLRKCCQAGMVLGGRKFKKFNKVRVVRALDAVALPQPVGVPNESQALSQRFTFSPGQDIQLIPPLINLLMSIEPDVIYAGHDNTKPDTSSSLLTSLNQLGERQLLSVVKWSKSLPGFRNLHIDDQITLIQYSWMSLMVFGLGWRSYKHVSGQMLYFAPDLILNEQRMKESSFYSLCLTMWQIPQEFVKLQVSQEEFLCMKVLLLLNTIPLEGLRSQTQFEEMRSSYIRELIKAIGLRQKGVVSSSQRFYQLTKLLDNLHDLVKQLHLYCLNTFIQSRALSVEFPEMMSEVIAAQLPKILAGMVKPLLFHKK
In kind it is functional.

Assay [10] addresses T4, Progesterone receptor. It is filed as functional. The source holds these as a separate data set.
Note: assay procedure not described here.

Sequence of Neurotensin receptor type 1 (P30989 whole entry): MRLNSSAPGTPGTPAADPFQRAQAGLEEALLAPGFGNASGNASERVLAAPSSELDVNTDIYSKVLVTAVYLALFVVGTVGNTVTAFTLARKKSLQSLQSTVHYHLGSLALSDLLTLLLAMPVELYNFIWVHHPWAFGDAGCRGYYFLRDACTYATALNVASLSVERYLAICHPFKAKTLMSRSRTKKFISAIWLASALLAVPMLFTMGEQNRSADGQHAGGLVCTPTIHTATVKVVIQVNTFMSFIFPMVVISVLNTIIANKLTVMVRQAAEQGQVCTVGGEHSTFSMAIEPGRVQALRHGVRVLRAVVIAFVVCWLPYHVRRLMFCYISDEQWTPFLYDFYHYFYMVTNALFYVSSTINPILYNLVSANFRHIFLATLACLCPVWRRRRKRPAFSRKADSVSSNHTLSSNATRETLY
Sequence of Sodium-dependent noradrenaline transporter (P23975 whole entry): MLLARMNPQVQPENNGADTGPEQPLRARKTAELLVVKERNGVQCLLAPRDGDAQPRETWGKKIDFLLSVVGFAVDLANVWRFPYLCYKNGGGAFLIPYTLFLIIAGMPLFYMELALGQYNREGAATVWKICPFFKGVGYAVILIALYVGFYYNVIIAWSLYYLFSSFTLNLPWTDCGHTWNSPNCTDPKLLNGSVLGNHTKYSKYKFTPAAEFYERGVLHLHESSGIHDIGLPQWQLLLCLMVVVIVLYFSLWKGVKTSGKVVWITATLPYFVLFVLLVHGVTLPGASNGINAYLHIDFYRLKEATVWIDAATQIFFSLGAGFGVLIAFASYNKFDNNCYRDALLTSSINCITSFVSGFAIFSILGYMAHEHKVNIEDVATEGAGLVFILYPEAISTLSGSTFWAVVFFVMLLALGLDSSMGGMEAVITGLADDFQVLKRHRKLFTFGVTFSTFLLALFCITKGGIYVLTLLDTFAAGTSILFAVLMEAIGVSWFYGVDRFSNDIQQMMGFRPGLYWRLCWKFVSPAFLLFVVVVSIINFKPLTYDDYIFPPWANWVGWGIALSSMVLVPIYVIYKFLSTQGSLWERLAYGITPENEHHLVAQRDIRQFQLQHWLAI
Sequence of Histamine H3 receptor (Q9Y5N1 whole entry): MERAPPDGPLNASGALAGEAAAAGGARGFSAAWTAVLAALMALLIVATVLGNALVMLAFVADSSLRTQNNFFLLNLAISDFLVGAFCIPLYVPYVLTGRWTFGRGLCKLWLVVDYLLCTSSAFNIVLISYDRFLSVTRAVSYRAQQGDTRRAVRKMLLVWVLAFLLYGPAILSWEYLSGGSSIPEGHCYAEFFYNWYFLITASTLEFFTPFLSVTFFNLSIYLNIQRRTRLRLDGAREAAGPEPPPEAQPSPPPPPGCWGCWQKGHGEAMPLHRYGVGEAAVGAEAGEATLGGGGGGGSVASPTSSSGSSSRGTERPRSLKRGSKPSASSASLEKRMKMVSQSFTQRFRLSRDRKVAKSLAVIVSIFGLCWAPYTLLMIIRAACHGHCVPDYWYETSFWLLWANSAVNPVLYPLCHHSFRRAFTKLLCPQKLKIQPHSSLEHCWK
Sequence of Voltage-dependent N-type calcium channel subunit alpha-1B (Q02294 whole entry): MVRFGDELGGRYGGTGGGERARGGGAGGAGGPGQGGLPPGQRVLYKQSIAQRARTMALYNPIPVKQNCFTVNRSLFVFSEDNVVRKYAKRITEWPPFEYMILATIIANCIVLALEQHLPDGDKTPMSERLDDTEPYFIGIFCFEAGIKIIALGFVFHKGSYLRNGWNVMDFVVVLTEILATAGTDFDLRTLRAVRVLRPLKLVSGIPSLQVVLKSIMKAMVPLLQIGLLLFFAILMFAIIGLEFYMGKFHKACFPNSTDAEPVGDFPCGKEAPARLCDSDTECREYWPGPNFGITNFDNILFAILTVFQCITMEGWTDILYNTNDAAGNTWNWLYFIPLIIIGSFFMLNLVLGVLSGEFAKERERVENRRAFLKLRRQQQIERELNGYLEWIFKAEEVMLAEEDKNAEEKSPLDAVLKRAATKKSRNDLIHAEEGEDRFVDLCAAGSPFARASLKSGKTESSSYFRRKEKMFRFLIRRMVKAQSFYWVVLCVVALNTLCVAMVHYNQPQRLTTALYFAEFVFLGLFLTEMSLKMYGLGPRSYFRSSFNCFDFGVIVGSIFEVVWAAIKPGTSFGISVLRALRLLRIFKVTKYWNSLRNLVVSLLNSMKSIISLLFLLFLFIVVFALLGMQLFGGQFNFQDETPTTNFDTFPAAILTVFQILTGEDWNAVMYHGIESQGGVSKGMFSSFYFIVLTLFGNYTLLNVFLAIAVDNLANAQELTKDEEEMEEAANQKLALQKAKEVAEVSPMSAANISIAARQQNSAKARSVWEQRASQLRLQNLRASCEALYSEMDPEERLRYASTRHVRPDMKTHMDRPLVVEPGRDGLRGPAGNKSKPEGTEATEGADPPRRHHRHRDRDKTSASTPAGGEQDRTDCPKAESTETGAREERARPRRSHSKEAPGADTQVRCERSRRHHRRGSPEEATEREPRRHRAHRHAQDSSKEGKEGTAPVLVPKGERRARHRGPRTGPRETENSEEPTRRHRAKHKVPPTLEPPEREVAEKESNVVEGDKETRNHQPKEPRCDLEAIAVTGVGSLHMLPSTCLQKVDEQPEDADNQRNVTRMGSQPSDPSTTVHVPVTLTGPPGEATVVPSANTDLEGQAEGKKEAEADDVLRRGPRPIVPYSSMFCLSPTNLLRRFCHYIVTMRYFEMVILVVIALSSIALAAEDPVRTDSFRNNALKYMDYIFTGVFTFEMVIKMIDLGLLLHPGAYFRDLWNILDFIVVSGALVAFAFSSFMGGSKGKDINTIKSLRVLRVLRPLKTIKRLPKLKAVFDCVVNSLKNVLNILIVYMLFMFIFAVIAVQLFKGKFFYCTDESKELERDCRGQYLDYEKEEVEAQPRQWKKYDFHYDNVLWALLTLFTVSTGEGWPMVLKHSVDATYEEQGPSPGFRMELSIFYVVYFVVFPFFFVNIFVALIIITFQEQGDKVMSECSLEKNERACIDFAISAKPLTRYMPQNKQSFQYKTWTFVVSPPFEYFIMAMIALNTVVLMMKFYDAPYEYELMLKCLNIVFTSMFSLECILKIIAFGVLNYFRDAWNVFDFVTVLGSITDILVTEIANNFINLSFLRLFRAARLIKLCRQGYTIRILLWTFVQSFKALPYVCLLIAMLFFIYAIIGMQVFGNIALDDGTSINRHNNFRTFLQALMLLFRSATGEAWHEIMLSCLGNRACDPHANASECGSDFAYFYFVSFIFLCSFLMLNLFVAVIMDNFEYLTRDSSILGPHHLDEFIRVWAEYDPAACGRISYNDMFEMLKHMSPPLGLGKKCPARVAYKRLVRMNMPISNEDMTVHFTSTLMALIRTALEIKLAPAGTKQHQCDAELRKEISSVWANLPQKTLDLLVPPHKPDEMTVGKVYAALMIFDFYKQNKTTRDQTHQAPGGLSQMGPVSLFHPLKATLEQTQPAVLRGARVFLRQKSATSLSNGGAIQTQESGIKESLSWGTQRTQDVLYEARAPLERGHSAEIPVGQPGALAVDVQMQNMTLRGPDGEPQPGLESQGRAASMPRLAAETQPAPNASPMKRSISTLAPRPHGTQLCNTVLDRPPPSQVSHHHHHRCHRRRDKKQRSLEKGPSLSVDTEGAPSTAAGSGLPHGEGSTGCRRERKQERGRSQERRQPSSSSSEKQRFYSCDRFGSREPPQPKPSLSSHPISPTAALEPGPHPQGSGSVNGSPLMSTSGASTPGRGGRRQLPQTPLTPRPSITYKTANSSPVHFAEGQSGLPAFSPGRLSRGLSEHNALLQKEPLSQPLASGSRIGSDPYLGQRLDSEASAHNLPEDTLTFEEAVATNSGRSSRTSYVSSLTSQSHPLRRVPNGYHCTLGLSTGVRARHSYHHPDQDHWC
Sequence of Beta-2 adrenergic receptor (P07550 whole entry): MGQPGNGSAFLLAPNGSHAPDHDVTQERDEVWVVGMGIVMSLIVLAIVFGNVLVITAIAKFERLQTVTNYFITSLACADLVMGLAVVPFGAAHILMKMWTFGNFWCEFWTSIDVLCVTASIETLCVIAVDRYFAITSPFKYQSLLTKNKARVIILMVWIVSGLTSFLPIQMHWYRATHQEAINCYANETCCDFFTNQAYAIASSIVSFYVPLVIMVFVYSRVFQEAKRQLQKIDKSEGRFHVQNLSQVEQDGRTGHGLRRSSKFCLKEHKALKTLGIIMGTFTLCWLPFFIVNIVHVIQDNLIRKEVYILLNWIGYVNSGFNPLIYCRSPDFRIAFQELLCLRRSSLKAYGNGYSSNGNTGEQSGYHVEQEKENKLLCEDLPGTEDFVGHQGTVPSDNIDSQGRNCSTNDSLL

Broadly, the AC50 is the midpoint of the concentration-response curve, whichever way the signal moves. As for `C[C@]1(COc2ccc(N3CCC(Oc4ccc(OC(F)(F)F)cc4)CC3)cc2)Cn2cc([N+](=O)[O-])nc2O1`, the AC50 was above 30 µM in assay [1]; above 10 µM in assay [2]; above 30 µM in assay [3]; above 10 µM in [4]; above 10 µM in assay [5]; above 10 µM in [6]. In addition, the AC50 in [7] was above 30 µM; in assay [8] it was above 10 µM.
Regarding `CC(=O)OCC[N+](C)(C)C` [ACETYLCHOLINE], the AC50 in assay [1] was above 30 µM; in assay [2] it was above 30 µM; in assay [3] it was above 30 µM; in assay [4], above 10 µM; in assay [5], above 10 µM; in [6], above 30 µM. Also, the results for the AC50 in assay [7], in [9] and in [10] were above 30 µM, 29 µM and above 30 µM, respectively.
With `C[C@H]1C[C@H]2[C@@H]3CCC4=CC(=O)C=C[C@]4(C)[C@@]3(Cl)[C@@H](O)C[C@]2(C)[C@@]1(O)C(=O)CO` [BECLOMETHASONE], the AC50 is above 30 µM in assay [1]; above 10 µM in [2]; above 30 µM in assay [3]; above 10 µM in [4]; above 10 µM in assay [5]; above 10 µM in assay [6]. In addition, in assay [7], the AC50 was above 30 µM.
Consider `COc1ccc2c(c1)[C@]13CCCC[C@@H]1[C@H](C2)N(C)CC3` [DEXTROMETHORPHAN], for which the AC50 in [1] was above 30 µM; in assay [3] it was above 30 µM; in [4], above 10 µM; in [5], above 10 µM; in assay [6], above 10 µM; in assay [7], above 30 µM.
Regarding `CCn1cc(C(=O)O)c(=O)c2cc(F)c(N3CCNCC3)nc21` [ENOXACIN], the half-maximal activity concentration (AC50) is above 30 µM in assay [1]; above 10 µM in assay [2]; above 30 µM in [3]; above 10 µM in assay [4]; above 10 µM in [5]; above 10 µM in assay [6]. In addition, the AC50 in assay [7] was above 30 µM.
For the compound `COCCCOc1ccnc(C[S+]([O-])c2nc3ccccc3[nH]2)c1C` (centres undefined) [RABEPRAZOLE], the AC50 in assay [1] is above 30 µM; in [2], above 10 µM; in [3] it was above 30 µM; in assay [4] it was above 10 µM; in assay [5], above 10 µM; in assay [6], above 10 µM. Besides, in assay [7], the AC50 is above 30 µM.
